Consider 12 molecules from the supplement of paper PMC11281043.

The structures appear in SMILES notation.

Settings in all cases: exposure: 6-8 hpf to 5 dpf, scored at 6 dpf
Experiment [1] concerns Danio rerio embryo/larva. Nature of the experiment: max % larvae with spinal defects across tested concentrations; higher = more toxic; extreme values may be limits of the assay.
Experiment [2] has as its system Danio rerio embryo/larva. Nature of the experiment: max % larvae with craniofacial defects across tested concentrations; higher = more toxic; extreme values may be limits of the assay.
Experiment [3] relates to Danio rerio embryo/larva. Kind of experiment: max % larvae generally abnormal across tested concentrations; higher = more toxic; extreme values may be limits of the assay.
Experiment [4] has as its system Danio rerio embryo/larva. Kind of experiment: max % larvae with uninflated swim bladder across tested concentrations; higher = more toxic; extreme values may be limits of the assay.
For experiment [5], the system named is Danio rerio embryo/larva. Nature of the experiment: max % larvae with blood pooling across tested concentrations; higher = more toxic; extreme values may be limits of the assay.
Experiment [6] relates to Danio rerio embryo/larva. Kind of experiment: max % larvae with abnormal position across tested concentrations; higher = more toxic; extreme values may be limits of the assay.
Experiment [7] deals with Danio rerio embryo/larva. Nature of the experiment: max % larvae with pigmentation defects across tested concentrations; higher = more toxic.
Experiment [8] has as its system Danio rerio embryo/larva. Nature of the experiment: BMC general abnormality; higher = less potent. How it is done:
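Zebrafish embryos (with chorion) were exposed from 6-8 hpf to each PFAS (8-point half-log series, top concentration up to 100 uM, 0.4% DMSO, sealed plates, 26 C; n = 6 embryos per concentration), rinsed at 5 dpf and scored at 6 dpf by two blinded observers for mortality, hatching and malformations. Endpoint scores are the % of living larvae affected (dead larvae excluded; […]). Curves were fitted with tcpl (cutoff 16%), and the BMC is the concentration at a benchmark response of 21.6%.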

For experiment [9], the system named is Danio rerio embryo/larva. Kind of experiment: max % larvae with tail defects across tested concentrations; higher = more toxic; extreme values may be limits of the assay.
The test system of experiment [10] is Danio rerio embryo/larva. Kind of experiment: max % larvae with edema across tested concentrations; higher = more toxic; extreme values may be limits of the assay.

With `O=P(O)(O)CCC(F)(F)C(F)(F)C(F)(F)C(F)(F)C(F)(F)C(F)(F)C(F)(F)C(F)(F)F` [((Perfluorooctyl)ethyl)phosphonic acid] (max tested concentration (log10 uM): 2), the max % larvae in experiment [1] was 0%; in [2], 20%; in experiment [4], 100%; in experiment [5] it was 0%; in [6], 50%; in experiment [7], 0%. For the same molecule, the max % larvae in experiment [9] was 5%; in experiment [10] it was 50%. In addition, in [3], the “max % larvae generally abnormal across tested concentrations” value is 60%. Also, the BMC general abnormality in [8] came to 1.31 µM.

As to `C=CC(=O)OCC(F)(F)C(F)(F)C(F)(F)C(F)(F)COC(=O)C=C` [1H,1H,6H,6H-Perfluorohexane-1,6-diol diacrylate] (max tested concentration (log10 uM): 1), the max % larvae worked out at 0% in [1]; 8.33% in experiment [2]; 50% in experiment [4]; 0% in experiment [5]; 4.17% in experiment [6]; 0% in experiment [7]. Further, the max % larvae came to 0% in [9] and 25% in experiment [10]. Further, the “max % larvae generally abnormal across tested concentrations” value in experiment [3] came out at 25%. Further, the BMC general abnormality in experiment [8] was found to be 7.57 µM.

On to `OC(C(F)(F)F)(C(F)(F)F)C(O)(C(F)(F)F)C(F)(F)F` [Perfluoropinacol] (max tested concentration (log10 uM): 0.477121), for which the max % larvae in experiment [1] was found to be 0%; in experiment [2], 50%; in experiment [4] it was 100%; in experiment [5], 0%; in [6], 0%; in [7], 0%. Moreover, the values for the max % larvae in [9] and in [10] were 0% and 50%, respectively. Further, in experiment [3], the “max % larvae generally abnormal across tested concentrations” value worked out at 50%. The molecule further gave a BMC general abnormality in experiment [8] of 2.52 µM.

Consider `O=C(O)C(F)(F)OC(F)(F)C(F)(F)OC(F)(F)C(F)(F)OC(F)(F)C(F)(F)C(F)(F)C(F)(F)F` [Perfluoro-3,6,9-trioxatridecanoic acid] (max tested concentration (log10 uM): 1), for which the max % larvae came out at 0% in [1]; 0% in experiment [2]; 100% in experiment [4]; 16.7% in experiment [5]; 50% in [6]; 0% in experiment [7]. Besides, the max % larvae turned out to be 0% in experiment [9] and 50% in experiment [10]. For the same molecule, in [3], the “max % larvae generally abnormal across tested concentrations” value stood at 50%. The BMC general abnormality in experiment [8] worked out at 1.51 µM.

With `O=C(O)CCC(F)(F)C(F)(F)C(F)(F)C(F)(F)C(F)(F)F` [2H,2H,3H,3H-Perfluorooctanoic acid] (max tested concentration (log10 uM): 1.47712), the max % larvae in experiment [1] is 12.5%; in experiment [2], 100%; in experiment [4], 100%; in experiment [5], 100%; in [6] it was 25%; in experiment [7], 0%. The values for the max % larvae in experiment [9] and in [10] were 25% and 100%, respectively. Also, the “max % larvae generally abnormal across tested concentrations” value in [3] is 100%. In [8], this molecule had a BMC general abnormality of 9.38 µM.

`C=CC(=O)OCCC(F)(F)C(F)(F)C(F)(F)C(F)(F)F` [2-(Perfluorobutyl)ethyl acrylate] (max tested concentration (log10 uM): 2): the max % larvae came out at 0% in experiment [1]; 0% in experiment [2]; 100% in experiment [4]; 0% in experiment [5]; 0% in experiment [6]; 0% in experiment [7]. Besides, the max % larvae in experiment [9] and in experiment [10] was 0% in each case. Further, in experiment [3], the “max % larvae generally abnormal across tested concentrations” value was 50%. This molecule yielded a BMC general abnormality in experiment [8] of 74.8 µM.

Consider `OCCCC(F)(F)C(F)(F)C(F)(F)C(F)(F)C(F)(F)C(F)(F)C(F)(F)F` [7:3 Fluorotelomer alcohol] (max tested concentration (log10 uM): 2), for which the max % larvae was 0% in [1]; 11.1% in [2]; 22.2% in experiment [4]; 16.7% in [5]; 0% in experiment [6]; 0% in experiment [7]. Moreover, the results for the max % larvae in experiment [9] and in [10] were 0% and 19.4%, respectively. Further, the “max % larvae generally abnormal across tested concentrations” value in [3] came to 22.2%. Also, the BMC general abnormality in experiment [8] came out at 44.8 µM.

With `CC(C)(C)C(=O)CC(=O)C(F)(F)C(F)(F)C(F)(F)F` [(Heptafluorobutanoyl)pivaloylmethane] (max tested concentration (log10 uM): 2), the max % larvae in experiment [1] stood at 0%; in [2], 83.3%; in [4], 100%; in experiment [5], 20%; in experiment [6] it was 25%; in experiment [7], 0%. The max % larvae came out at 0% in experiment [9] and 66.7% in [10]. Further, the “max % larvae generally abnormal across tested concentrations” value in experiment [3] turned out to be 66.7%. The molecule also gave a BMC general abnormality in experiment [8] of 25.6 µM.

As for `O=C(O)C(F)(F)C(F)(F)C(F)(F)C(F)(F)C(F)(F)C(F)(F)C(F)(F)C(F)(F)Cl` [9-Chloro-perfluorononanoic acid] (max tested concentration (log10 uM): 2), the max % larvae in experiment [1] came to 50%; in experiment [2] it was 100%; in experiment [4], 100%; in experiment [5], 41.7%; in experiment [6], 25%; in [7], 0%. Also, the max % larvae came to 75% in [9] and 100% in [10]. In experiment [3], the “max % larvae generally abnormal across tested concentrations” value stood at 100%. This molecule also displayed a BMC general abnormality in experiment [8] of 9.23 µM.

As to `NS(=O)(=O)C(F)(F)C(F)(F)C(F)(F)C(F)(F)C(F)(F)C(F)(F)C(F)(F)C(F)(F)F` [Perfluorooctanesulfonamide] (max tested concentration (log10 uM): 0), the max % larvae in experiment [1] turned out to be 0%; in experiment [2], 8.33%; in experiment [4], 50%; in experiment [5], 16.7%; in [6], 8.33%; in experiment [7], 0%. Also, the max % larvae in experiment [9] was determined as 0%; in experiment [10] it was 37.5%. Further, the “max % larvae generally abnormal across tested concentrations” value in experiment [3] was found to be 41.7%. For the same molecule, the BMC general abnormality in experiment [8] is 0.381 µM.

Consider `CNS(=O)(=O)C(F)(F)C(F)(F)C(F)(F)C(F)(F)C(F)(F)C(F)(F)C(F)(F)C(F)(F)F` [N-Methylperfluorooctanesulfonamide] (max tested concentration (log10 uM): 2), for which the max % larvae came out at 0% in experiment [1]; 18.2% in experiment [2]; 90.9% in [4]; 0% in experiment [5]; 8.33% in [6]; 0% in experiment [7]. Besides, the max % larvae came out at 0% in experiment [9] and 36.4% in experiment [10]. Moreover, the “max % larvae generally abnormal across tested concentrations” value in experiment [3] was found to be 50%. Also, the BMC general abnormality in [8] came out at 0.968 µM.

Regarding `O=S(=O)(O)C(F)(F)C(F)(F)C(F)(F)C(F)(F)C(F)(F)C(F)(F)C(F)(F)C(F)(F)F` [Perfluorooctanesulfonic acid] (max tested concentration (log10 uM): 1), the max % larvae in experiment [1] is 6.25%; in experiment [2], 50%; in [4], 62.5%; in [5], 0%; in [6], 25%; in experiment [7], 0%. Further, the max % larvae in [9] turned out to be 18.8%; in [10], 43.8%. Further, in experiment [3], the “max % larvae generally abnormal across tested concentrations” value came out at 75%. This molecule showed a BMC general abnormality in [8] of 7.82 µM.
